Measured values from patent EP0354453A2, “Antimicrobial agent for animals” (priority 1988, dated 1990).
Converted amounts (≈) assume the structure as drawn.

How the values were obtained:
Escherichia coli = experiment: Effect of oral administration on chicken inoculated with Escherichia coli; assay type: in vivo; settings: for Chickens developing disease in air sac (naked eye observation) / No. of dead chickens: 5 tested chickens
Method: Escherichia coli cells collected from infected chicken were cultured overnight in a trypticase soy broth (BBL). 0.2 ml of this culture broth was injected into the trachea of chickens of average body weight of 80 g using a 1 ml disposable injection needle. Beginning 2 hours after the inoculation, feeds to which Compound (1) had been added in the amount of 50 ppm, 25 ppm, or 12.5 ppm were freely given to the chickens for 5 days. Following the administration of Compound (1) the chickens were given feed with no addition of drug for 5 days. The surviving chickens were sacrificed and dissected. After examination of the degree of disease in the air sac, Escherichia coli in the trachea, lung, and air sac were quantitatively determined. […]

[1] = test system: Staphylococcus aureus Aichi 2; experiment: in vitro antimicrobial activity (MIC), agar dilution, Part 1; assay type: cell-based; settings: AICHI2; Staphylococcus aureus Aichi 2, Chicken; Mueller Hinton agar, 37°C, 18-24 hours
Method: (§1) Test microorganisms listed in Table 2 were cultured overnight in heart infusion nutrient broth (produced by Eiken Chemical Co., Ltd.). Culture broth containing about 10⁸/ml cells was diluted to a volume of 100 times. An aliquot (about 0.05 ml) of the diluted broth was inoculated onto a Mueller Hinton agar plate (produced by Eiken Chemical Co., Ltd.) to which Compound No. 1 was added in a prescribed concentration. […]

Escherichia coli 442 = experiment: as above; assay type: cell-based; settings: Escherichia coli 442, Chicken; Mueller Hinton agar, 37°C, 18-24 hours
Method: as §1

Escherichia coli 164 = experiment: as above; assay type: cell-based; settings: Escherichia coli 164, Pig; Mueller Hinton agar, 37°C, 18-24 hours
Method: as §1

[2] = test system: Salmonella typhimurium 101; experiment: as above; assay type: cell-based; settings: Salmonella enterica; Salmonella typhimurium 101, Chicken; Mueller Hinton agar, 37°C, 18-24 hours
Method: as §1

[3] = test system: Salmonella typhimurium 595; experiment: as above; assay type: cell-based; settings: Salmonella enterica; Salmonella typhimurium 595, Pig; Mueller Hinton agar, 37°C, 18-24 hours
Method: as §1

Escherichia coli 15-4 = experiment: as above; assay type: cell-based; settings: 154; Escherichia coli 15-4, Cow; Mueller Hinton agar, 37°C, 18-24 hours
Method: as §1

[4] = test system: Bordetella bronchiaseptica AR3; experiment: as above; assay type: cell-based; settings: Bordetella bronchiaseptica AR3, Pig; Mueller Hinton agar, 37°C, 18-24 hours
Method: as §1

Mycoplasma gallisepticum = experiment: Effect of oral administration on chicken inoculated with Mycoplasma gallisepticum; assay type: in vivo; settings: for Chickens developing disease in air sac (naked eye observation) / No. of dead chickens: 5 tested chickens
Method: Mycoplasma gallisepticum cells collected from chickens having respiratory Mycoplasma infection were cultured for 3 days in a Frey liquid media for Mycoplasma. 0.2 ml of this culture broth was injected into the trachea of chickens of an average body weight of 80 g using a 1 ml disposable injection needle. Beginning from the next day following the inoculation, feeds to which Compound (1) had been added in the amount of 100 ppm, 75 ppm, or 50 ppm were freely given to the chickens for 5 days. Following the administration of Compound (1) the chickens were given feed containing no drug for a further 5 days. The surviving chickens were sacrificed and dissected. After examination of the degree of disease in the air sac, Mycoplasma gallisepticum in the infraorbital sinus, trachea, lung, and air sac were determined. […] TABLE 6 […]

## CC1COc2c(N3CCN(C)CC3)c(F)cc3c(=O)c(C(=O)O)cn1c23 (racemic) [Ofloxacin, reference compound]
Escherichia coli; 12.5 ppm in feed for 5 days
  Escherichia coli collected in Air sac: 4.20 Logarithmic number of collected cells per 1 g of tissue
  Escherichia coli collected in Lung: 5.26 Logarithmic number of collected cells per 1 g of tissue
  Escherichia coli collected in Trachea: 7.48 Logarithmic number of collected cells per 1 g of tissue
  Chickens developing disease in air sac (naked eye observation): 3
  No. of dead chickens: 2
Escherichia coli; 25 ppm in feed for 5 days
  Escherichia coli collected in Air sac: 3.90 Logarithmic number of collected cells per 1 g of tissue
  Escherichia coli collected in Lung: 1.86 Logarithmic number of collected cells per 1 g of tissue
  Escherichia coli collected in Trachea: 4.58 Logarithmic number of collected cells per 1 g of tissue
  Chickens developing disease in air sac (naked eye observation): 3
  No. of dead chickens: 1
Escherichia coli; 50 ppm in feed for 5 days
  Escherichia coli collected in Air sac: 0 Logarithmic number of collected cells per 1 g of tissue
  Escherichia coli collected in Lung: 0 Logarithmic number of collected cells per 1 g of tissue
  Escherichia coli collected in Trachea: 0 Logarithmic number of collected cells per 1 g of tissue
  Chickens developing disease in air sac (naked eye observation): 2
  No. of dead chickens: 1
[1]
  MIC: 0.2 µg/mL (≈ 0.553 µM)
Escherichia coli 442
  MIC: 0.05 µg/mL (≈ 0.138 µM)
Escherichia coli 164
  MIC: 0.1 µg/mL (≈ 0.277 µM)
[2]
  MIC: 0.05 µg/mL (≈ 0.138 µM)
[3]
  MIC: 0.1 µg/mL (≈ 0.277 µM)
Escherichia coli 15-4
  MIC: 0.1 µg/mL (≈ 0.277 µM)
[4]
  MIC: 0.39 µg/mL (≈ 1.08 µM)
Mycoplasma gallisepticum; 50 ppm in feed for 5 days
  Mycoplasma gallisepticum collected in Air sac: 3.70 Logarithmic number of collected cells per 1 g of tissue
  Mycoplasma gallisepticum collected in Infraorbital sinus: 1/5
  Mycoplasma gallisepticum collected in Lung: 4.78 Logarithmic number of collected cells per 1 g of tissue
  Mycoplasma gallisepticum collected in Trachea: 3.64 Logarithmic number of collected cells per 1 g of tissue
  Chickens developing disease in air sac (naked eye observation): 1
  No. of dead chickens: 0
Mycoplasma gallisepticum; 75 ppm in feed for 5 days
  Mycoplasma gallisepticum collected in Air sac: 0 Logarithmic number of collected cells per 1 g of tissue
  Mycoplasma gallisepticum collected in Infraorbital sinus: 0/5
  Mycoplasma gallisepticum collected in Lung: 4.00 Logarithmic number of collected cells per 1 g of tissue
  Mycoplasma gallisepticum collected in Trachea: 3.82 Logarithmic number of collected cells per 1 g of tissue
  Chickens developing disease in air sac (naked eye observation): 0
  No. of dead chickens: 0
Mycoplasma gallisepticum; 100 ppm in feed for 5 days
  Mycoplasma gallisepticum collected in Air sac: 0 Logarithmic number of collected cells per 1 g of tissue
  Mycoplasma gallisepticum collected in Infraorbital sinus: 0/5
  Mycoplasma gallisepticum collected in Lung: 0 Logarithmic number of collected cells per 1 g of tissue
  Mycoplasma gallisepticum collected in Trachea: 0 Logarithmic number of collected cells per 1 g of tissue
  Chickens developing disease in air sac (naked eye observation): 0
  No. of dead chickens: 0
